Test results as given in patent publication US20260215418A1, “HYDROCARBON ALCOHOLS AND THEIR DERIVATIVES AS SYNERGISTS IN PESTICIDE ACTIVITY” (priority 2022, published 2026).

What was measured:
Assay type in all cases: in vivo
Musca domestica L. = experiment: Contact test on non-porous tile, Musca domestica
Experimental: 1 ml of Composition 1 was applied to the tile. […] 1 ml of Composition 8a was distributed on the tile. […] 1 ml of Composition 8a was distributed on a tile. […] At the end of the 30 minutes, the flies were transferred to an untreated area.
1 ml of Composition 3 was applied to the tile. […] 1 ml of Composition 8c was distributed on the tile. […] 1 ml of Composition 8c was distributed on a tile. […] At the end of the 30 minutes, the flies were transferred to an untreated area.
1 ml of Composition 9a was distributed on the tile. […] 1 ml of Composition 9a was distributed on a tile. […] At the end of the 30 minutes, the flies were transferred to an untreated area. […] 1 ml of Composition 10a was distributed on the tile. […] 1 ml of Composition 10a was distributed on a tile. […] At the end of the 30 minutes, the flies were transferred to an untreated area. […] 1 ml of Composition 8c was distributed on the tile. […] 1 ml of Composition 8c was distributed on a tile. […] At the end of the 30 minutes, the flies were transferred to an untreated area.
1 ml of Composition 5a, was distributed on the tile. […] 1 ml of Composition 6a was distributed on the tile. […] 1 ml of Composition 7a was distributed on the tile.
1 ml of Composition 3 was distributed on the tile. […] 1 ml of Composition 9a was distributed on the tile. […] 1 ml of Composition 11a was distributed on a tile. […] 1 ml of Composition 12a was distributed on a tile.
1 ml of Composition 3 was distributed on the tile. […] 1 ml of Composition 17a was distributed on a tile. […] 1 ml of Composition 18a was distributed on a tile. […] Each experiment (A-C) was conducted in duplicate.
1 ml of Composition 23a was distributed on the tile. […] 1 ml of Composition 20a was distributed on a tile. […] Each experiment (A-B) was conducted in duplicate.
1 ml of Composition 3 was distributed on the tile. […] 1 ml of Composition 25a was distributed on a tile. […] Each experiment (A-B) was conducted in duplicate.
1 ml of Composition 23a was distributed on the tile. […] 1 ml of Composition 27a was distributed on a tile. […] Each experiment (A-B) was conducted in duplicate.
1 ml of Composition 26a was distributed on a tile. […] 1 ml of Composition 26b was distributed on a tile. […] 1 ml of Composition 26c was distributed on a tile.
1 ml of Composition 22a was distributed on a tile. […] 1 ml of Composition 22b was distributed on a tile. […] 1 ml of Composition 22c was distributed on a tile.
1 ml of Composition 23a was distributed on the tile. […] 1 ml of Composition 44a was distributed on a tile.
1 ml of Composition 33 was distributed on a tile. […] 1 ml of Composition 33 was distributed on a tile. […] At the end of the 30 minutes, the flies were transferred to an untreated area.
1 ml of Composition 1 was distributed on the tile. […] 1 ml of Composition 34 was distributed on a tile. […] 1 ml of Composition 34 was distributed on a tile. […] At the end of the 30 minutes, the flies were transferred to an untreated area.
1 ml of Composition 3 was distributed on the tile. […] 1 ml of Composition 31a was distributed on a tile. […] 1 ml of Composition 31b was distributed on a tile. […] 1 ml of Composition 31b was distributed on a tile. […] At the end of the 30 minutes, the flies were transferred to an untreated area. […] 1 ml of Composition 38a was distributed on a tile. […] 1 ml of Composition 38a was distributed on a tile. […] At the end of the 30 minutes, the flies were transferred to an untreated area.
G) According to the invention. 1 ml of Composition 40a was distributed on a tile. […] Subsequently, after waiting for the solvent to evaporate, 10 flies were placed on top of the treated til

Blatta lateralis = experiment: Contact test on non-porous tile, Blatta lateralis; conditions: Blatta lateralis
Experimental: 1 ml of Composition 24 was distributed on the tile. […] 1 ml of Composition 20c was distributed on a tile. […] 1 ml of Composition 20d was distributed on a tile.
1 ml of Composition 24 was distributed on the tile. […] 1 ml of Composition 28 was distributed on a tile. […] Each experiment (A-B) was conducted in duplicate.
1 ml of Composition 24 was distributed on the tile. […] 1 ml of Composition 21 was distributed on a tile.
1 ml of Composition 4b was distributed on the tile. […] 1 ml of Composition 31c was distributed on a tile. […] 1 ml of Composition 31d was distributed on a tile. […] 1 ml of Composition 31d was distributed on a tile.
1 ml of Composition 24 was distributed on the tile. […] 1 ml of Composition 35 was distributed on a tile. […] 1 ml of Composition 40b was distributed on a tile. […] 1 ml of Composition 42 was distributed on a tile.

Blattella germanica = experiment: Contact test on non-porous tile, Blattella germanica; conditions: 24 h; for Mortality %/time (h) (application): Table 37, Blattella germanica, concentrations in mg/ml in label
Experimental: 1 ml of Composition 36 was distributed on the tile. […] 1 ml of Composition 37 was distributed on a tile.

Row | Compound | synergizing effect on Azamethiphos (Musca domestica L.; Musca domestica L., synergist applied with Azamethiphos) | synergizing effect on Cypermethrin (Musca domestica L.; Musca domestica L., synergist applied with Cypermethrin) | synergizing effect on Pyrethrins (Musca domestica L.; Musca domestica L., synergist applied with Pyrethrins) | synergizing effect on Spinosad (Musca domestica L.; Musca domestica L., synergist applied with Spinosad) | mortality at 390 µg/mL (Musca domestica L.; Musca domestica, single substance alone, 0.39 mg/ml, 48 h, read-out: Mortality %/time (h)) [%] | mortality at 680 µg/mL (Musca domestica L.; Musca domestica, single substance alone, 0.68 mg/ml, 48 h, read-out: Mortality %/time (h)) [%] | mortality at 1050 µg/mL (Musca domestica L.; Musca domestica, single substance alone, 1.05 mg/ml, 48 h, read-out: Mortality %/time (h)) [%] | mortality at 2340 µg/mL (Musca domestica L.; Musca domestica, single substance alone, 2.34 mg/ml, 48 h, read-out: Mortality %/time (h)) [%] | synergizing effect on Cypermethrin (Blatta lateralis; synergist applied with Cypermethrin) | synergizing effect on Imidacloprid (Blatta lateralis; synergist applied with Imidacloprid) | Mortality % (Blattella germanica; Example 34, 25° C, insects on treated tile) [%] | Mortality %/time (h) (application) (Blattella germanica)
1 | CCCCC(O)CO (stereo not shown) [1,2-hexandiol] | excellent synergizing effect | excellent synergizing effect | good synergizing effect | good synergizing effect | 4 | 7 | 10 | 23 | good synergizing effect | excellent synergizing effect | – | –
2 | O=[N+]([O-])NC1=NCCN1Cc1ccc(Cl)nc1 [Composition 36, Imidacloprid, reference compound] | – | – | – | – | – | – | – | – | – | – | 27 | 27/24 ^ %
3 | Oleic alcohol [Composition 37] | – | – | – | – | – | – | – | – | – | – | – | 7/24 ^ %
